{"source": "patent US9084770B2", "about": "“Modulation of insulin like growth factor I receptor expression in cancer” (Antisense Therapeutics, Ltd., priority 2008, dated 2015)", "system": "human IGF-IR mRNA", "assay": "Antisense inhibition of human IGF-IR mRNA levels by quantitative RT-PCR (Table 1)", "type": "cell-based", "parameters": "%INHIB (human IGF-IR mRNA levels): concentration or dose not given beside the values", "details": "for %INHIB (human IGF-IR mRNA levels): quantitative RT-PCR, averages from 3 experiments; for inhibition of IGF-IR expression (lead compounds): as shown in Table 1", "excerpt": "Treatment of A549 cell cultures with oligonucleotides targeting IGF-IR is as described in WO 2004/072284.\nQuantitation of IGF-IR mRNA levels was accomplished by RT-PCR using the ABI PRISM (trademark) 7600, 7700, or 7900 Sequence Detection System (PE-Applied Biosystems, Foster City, Calif.) according to manufacturer's instructions. This is a closed-tube, non-gel-based, fluorescence detection system which allows high-throughput quantitation of PCR products in real-time. As opposed to standard PCR in which amplification products are quantitated after the PCR is completed, products in real-time quantitative PCR are quantitated as they accumulate. This is accomplished by including in the PCR reaction an oligonucleotide probe that anneals specifically between the forward and reverse PCR primers, and contains two fluorescent dyes. A reporter dye (e.g., FAM or JOE, obtained from either PE-Applied Biosystems, Foster City, Calif., Operon Technologies Inc., Alameda, Calif. or Integrated DNA Technologies Inc., Coralville, Iowa) is attached to the 5′-end of the probe and a quencher dye (e.g., TAMRA, obtained from either PE-Applied Biosystems, Foster City, Calif., Operon Technologies Inc., Alameda, Calif. or Integrated DNA Technologies Inc., Coralville, Iowa) is attached to the 3′-end of the probe. When the probe and dyes are intact, reporter dye emission is quenched by the proximity of the 3′ quencher dye. During amplification, annealing of the probe to the target sequence creates a substrate that can be cleaved by the 5′-exonuclease activity of Taq polymerase. […] With each cycle, additional reporter dye molecules are cleaved from their respective probes, and the fluorescence intensity is monitored at regular intervals by laser optics built into the ABI PRISM (trademark) Sequence Detection System. In each assay, a series of parallel reactions containing serial dilutions of mRNA from untreated control samples generates a standard curve that is used to quantitate the percent inhibition after antisense oligonucleotide treatment of test samples.\nPCR reagents were obtained from Invitrogen Corporation, (Carlsbad, Calif.). RT-PCR reactions were carried out by adding 20 μL PCR cocktail (2.5×PCR buffer minus MgCl2, 6.6 mM MgCl2, 375 μM each of dATP, dCTP, […] and dGTP, 375 nM each of forward primer and reverse primer, 125 nM of probe, 4 Units RNAse inhibitor, 1.25 Units PLATINUM (registered trademark) Taq, 5 Units MuLV reverse transcriptase, and 2.5×ROX dye) to 96-well plates containing 30 μL total RNA solution (20-200 ng). The RT reaction was carried out by incubation for 30 minutes at 48° C. Following a 10 minute incubation at 95° C. to activate the PLATINUM (trademark) Taq, 40 cycles of a two-step PCR protocol were carried out: 95° C. for 15 seconds (denaturation) followed by 60° C. for 1.5 minutes (annealing/extension).\nGene target quantities obtained by RT-PCR are normalized using either the expression level of GAPDH, a gene whose expression is constant, or by quantifying total RNA using RiboGreen (trademark) (Molecular Probes, Inc. Eugene, Oreg.). GAPDH expression is quantified by RT-PCR, by being run simultaneously with the target, multiplexing, or separately. Total RNA is quantified using RiboGreen (trademark) RNA quantification reagent (Molecular Probes, Inc. Eugene, Oreg.). Methods of RNA quantification by RiboGreen (trademark) are taught in Jones et al., 1998.\nProbes and primers to human IGF-IR were designed to hybridize to the IGF-IR nucleotide sequence, using published sequence information (GenBank accession number NM000875 (SEQ ID NO:76) or M69229 (SEQ ID NO:77) which is the 5′ untranslated of the IGF-IR gene sequence (see FIG. 6).\nIn accordance with the present invention, a series of antisense compounds were designed to target different regions of the human IGF-IR mRNA or the 5′ untranslated region, using published sequences set forth in NM000875 (SEQ ID NO:77) and M69229 (SEQ ID NO:76). […]", "note": "Strand notation (5' to 3'): a small letter for the sugar, then the base; units joined by * are phosphorothioate-linked, units joined directly phosphodiester-linked; [ ] holds rarer units or linkages, { } end groups; capitals alone tell only the bases. e = 2'-O-(2-methoxyethyl) (MOE); [5mC] = 5-methylcytosine; d = 2'-deoxy (DNA)", "data": [{"substance": "323695 (antisense CCTTTTATTTGGGATGAAAT; listed as DNA, chemistry not fully specified) [compound 323695]", "values": [{"measurement": "%INHIB (human IGF-IR mRNA levels)", "result": 50, "unit": "%"}]}, {"substance": "175304 (antisense TCGCTGAAGGTCACAGCCGA; listed as DNA, chemistry not fully specified) [compound 175304]", "values": [{"measurement": "%INHIB (human IGF-IR mRNA levels)", "result": 76, "unit": "%"}]}, {"substance": "323705 (antisense TTGTAGAAGAGTTTCCAGCC; listed as DNA, chemistry not fully specified) [compound 323705]", "values": [{"measurement": "%INHIB (human IGF-IR mRNA levels)", "result": 52, "unit": "%"}]}, {"substance": "175316 (antisense GCTCGCTGAAGGTCACAGCC; listed as DNA, chemistry not fully specified) [compound 175316]", "values": [{"measurement": "inhibition of IGF-IR expression (lead compounds)", "result": "demonstrated inhibition"}, {"measurement": "%INHIB (human IGF-IR mRNA levels)", "result": 82, "unit": "%"}]}, {"substance": "175313 (antisense TAGGCGAGGAAAAACAAGCC; listed as DNA, chemistry not fully specified) [compound 175313]", "values": [{"measurement": "%INHIB (human IGF-IR mRNA levels)", "result": 62, "unit": "%"}]}, {"substance": "175311 (antisense TAATGCTGGTAAACAAGAGC; listed as DNA, chemistry not fully specified) [compound 175311]", "values": [{"measurement": "%INHIB (human IGF-IR mRNA levels)", "result": 53, "unit": "%"}]}, {"substance": "323699 (antisense CTTCAGCTGCTGATAGTCGT; listed as DNA, chemistry not fully specified) [compound 323699]", "values": [{"measurement": "%INHIB (human IGF-IR mRNA levels)", "result": 74, "unit": "%"}]}, {"substance": "175314 (antisense e[5mC]*eT*e[5mC]*eG*e[5mC]*dT*dG*dA*dA*dG*dG*dT*d[5mC]*dA*d[5mC]*eA*eG*e[5mC]*e[5mC]*eG) [compound 175314]", "values": [{"measurement": "inhibition of IGF-IR expression (lead compounds)", "result": "demonstrated inhibition"}, {"measurement": "%INHIB (human IGF-IR mRNA levels)", "result": 87, "unit": "%"}]}, {"substance": "175293 (antisense GTTAATGCTGGTAAACAAGA; listed as DNA, chemistry not fully specified) [compound 175293]", "values": [{"measurement": "%INHIB (human IGF-IR mRNA levels)", "result": 40, "unit": "%"}]}, {"substance": "323698 (antisense GCTGCTGATAGTCGTTGCGG; listed as DNA, chemistry not fully specified) [compound 323698]", "values": [{"measurement": "%INHIB (human IGF-IR mRNA levels)", "result": 72, "unit": "%"}]}, {"substance": "175303 (antisense GAAGGTCACAGCCGAGGCGA; listed as DNA, chemistry not fully specified) [compound 175303]", "values": [{"measurement": "%INHIB (human IGF-IR mRNA levels)", "result": 82, "unit": "%"}]}, {"substance": "323754 (antisense CATAGAAGAACACAGGATCT; listed as DNA, chemistry not fully specified) [compound 323754]", "values": [{"measurement": "%INHIB (human IGF-IR mRNA levels)", "result": 33, "unit": "%"}]}, {"substance": "175292 (antisense AGTCTCAAACTCAGTCTTCG; listed as DNA, chemistry not fully specified) [compound 175292]", "values": [{"measurement": "%INHIB (human IGF-IR mRNA levels)", "result": 78, "unit": "%"}]}, {"substance": "175300 (antisense GCTGGTAAACAAGAGCCCCA; listed as DNA, chemistry not fully specified) [compound 175300]", "values": [{"measurement": "%INHIB (human IGF-IR mRNA levels)", "result": 54, "unit": "%"}]}, {"substance": "323764 (antisense GCTGCTTGCATATTGAAAAA; listed as DNA, chemistry not fully specified) [compound 323764]", "values": [{"measurement": "%INHIB (human IGF-IR mRNA levels)", "result": 77, "unit": "%"}]}, {"substance": "323706 (antisense TGGTCATCTCGAAGATGACC; listed as DNA, chemistry not fully specified) [compound 323706]", "values": [{"measurement": "%INHIB (human IGF-IR mRNA levels)", "result": 5, "unit": "%"}]}, {"substance": "323751 (antisense GCCACTTTAAAAAGATGGAG; listed as DNA, chemistry not fully specified) [compound 323751]", "values": [{"measurement": "%INHIB (human IGF-IR mRNA levels)", "result": 77, "unit": "%"}]}, {"substance": "175317 (antisense CGAAGGAAACAATACTCCGA; listed as DNA, chemistry not fully specified) [compound 175317]", "values": [{"measurement": "inhibition of IGF-IR expression (lead compounds)", "result": "demonstrated inhibition"}, {"measurement": "%INHIB (human IGF-IR mRNA levels)", "result": 84, "unit": "%"}]}, {"substance": "323737 (antisense CTGCTTCGGCTGGACATGGT; listed as DNA, chemistry not fully specified) [compound 323737]", "values": [{"measurement": "inhibition of IGF-IR expression (lead compounds)", "result": "demonstrated inhibition"}, {"measurement": "%INHIB (human IGF-IR mRNA levels)", "result": 84, "unit": "%"}]}, {"substance": "323697 (antisense TGATAGTCGTTGCGGATGTC; listed as DNA, chemistry not fully specified) [compound 323697]", "values": [{"measurement": "%INHIB (human IGF-IR mRNA levels)", "result": 73, "unit": "%"}]}, {"substance": "323732 (antisense GTGAGGGTCACAGCCTTGAC; listed as DNA, chemistry not fully specified) [compound 323732]", "values": [{"measurement": "%INHIB (human IGF-IR mRNA levels)", "result": 59, "unit": "%"}]}, {"substance": "175297 (antisense TGCTGGTAAACAAGAGCCCC; listed as DNA, chemistry not fully specified) [compound 175297]", "values": [{"measurement": "%INHIB (human IGF-IR mRNA levels)", "result": 61, "unit": "%"}]}, {"substance": "175323 (antisense AATGAATGAGCGGCTCCCCC; listed as DNA, chemistry not fully specified) [compound 175323]", "values": [{"measurement": "inhibition of IGF-IR expression (lead compounds)", "result": "demonstrated inhibition"}, {"measurement": "%INHIB (human IGF-IR mRNA levels)", "result": 82, "unit": "%"}]}, {"substance": "175309 (antisense GCAGAAACGCGGAGTCAAAA; listed as DNA, chemistry not fully specified) [compound 175309]", "values": [{"measurement": "%INHIB (human IGF-IR mRNA levels)", "result": 72, "unit": "%"}]}, {"substance": "323710 (antisense AAGCCCAATATCCTTGAGAT; listed as DNA, chemistry not fully specified) [compound 323710]", "values": [{"measurement": "%INHIB (human IGF-IR mRNA levels)", "result": 43, "unit": "%"}]}, {"substance": "323747 (antisense CCAGCTTCTCAGCCTCGTGG; listed as DNA, chemistry not fully specified) [compound 323747]", "values": [{"measurement": "inhibition of IGF-IR expression (lead compounds)", "result": "demonstrated inhibition"}, {"measurement": "%INHIB (human IGF-IR mRNA levels)", "result": 85, "unit": "%"}]}, {"substance": "323756 (antisense ACTCCTTCATAGACCATCCC; listed as DNA, chemistry not fully specified) [compound 323756]", "values": [{"measurement": "%INHIB (human IGF-IR mRNA levels)", "result": 26, "unit": "%"}]}, {"substance": "175302 (antisense CCTCCATTTTCAAACCCGGA; listed as DNA, chemistry not fully specified) [compound 175302]", "values": [{"measurement": "inhibition of IGF-IR expression (lead compounds)", "result": "demonstrated inhibition"}, {"measurement": "%INHIB (human IGF-IR mRNA levels)", "result": 93, "unit": "%"}]}, {"substance": "175328 (antisense GGTAAACAAGAGCCCCAGCC; listed as DNA, chemistry not fully specified) [compound 175328]", "values": [{"measurement": "%INHIB (human IGF-IR mRNA levels)", "result": 64, "unit": "%"}]}, {"substance": "175299 (antisense AATCTGCCTAGGCGAGGAAA; listed as DNA, chemistry not fully specified) [compound 175299]", "values": [{"measurement": "%INHIB (human IGF-IR mRNA levels)", "result": 78, "unit": "%"}]}, {"substance": "323711 (antisense CCCCCGAGTAATGTTCCTCA; listed as DNA, chemistry not fully specified) [compound 323711]", "values": [{"measurement": "%INHIB (human IGF-IR mRNA levels)", "result": 41, "unit": "%"}]}, {"substance": "323738 (antisense TGTTCCTGCTTCGGCTGGAC; listed as DNA, chemistry not fully specified) [compound 323738]", "values": [{"measurement": "%INHIB (human IGF-IR mRNA levels)", "result": 76, "unit": "%"}]}, {"substance": "323726 (antisense TGGGCACATTTTCTGGCAGC; listed as DNA, chemistry not fully specified) [compound 323726]", "values": [{"measurement": "%INHIB (human IGF-IR mRNA levels)", "result": 57, "unit": "%"}]}]}
